Assay results: patent publication US7202239B2, “Cyclohexylphenyl carboxamides tocolytic oxytocin receptor antagonists” (Wyeth, priority 2001, dated 2007)

biological target: human V2 vasopressin receptor subtype (Homo sapiens, UniProt P30518); assay: Vasopressin binding in CHO cell membranes expressing human vasopressin V2 subtype receptors; settings: 100 nM, [3H]arginine vasopressin
Source text: Vasopressin Binding in Chinese Hamster Ovary Cell Membranes Expressing Human Vasopressin V2 Subtype Receptors
Chinese Hamster Ovary (CHO) cells stably transfected with the human V2 subtype receptors were obtained from M. Thibonnier, Case Western Reserve University School of Medicine, Cleveland, Ohio.
A. Passaging and Amplification of Cells:
CHO cells transfected with the human vasopressin V2 subtype receptors obtained from M. Thibonnier (pZeoSV vector) are allowed to grow to confluency (approx. >90%) in T-150 flasks under sterile conditions, in a cell culture medium of F-12 Nutrient Mixture (HAM) with L-glutamine (Gibco Cat. # 11765-054) containing 15 mM HEPES (Gibco Cat. # 15630-080), 1% antibiotic/antimycotic (add 5 mL 100×, Gibco Cat. # 15240-062 per 500 mL F-12), 250 μg/mL Zeocin (add 1.25 mL of 100 mg/mL Invitrogen R-250-01 per 500 mL F-12) and 10% Fetal Bovine Serum (Qualified, heat inactivated, Gibco Cat. # 16140-063). The medium is removed by aspiration and the cells washed with 10 mL of Hank's Balanced Salt solution (Gibco Cat. # 14175-095). The salt solution is removed by aspiration and the cells trypsinized with 5 mL of trypsin-EDTA (0.05% trypsin, 0.53 mM EDTA-4Na, Gibco Cat. # 25300-070) for 1 min. The trypsin is removed by aspiration and the cells dislodged by tapping. Cell Culture medium (e.g. 30 mL for 1:30 split) is immediately added and mixed well to inactivate trypsin. 1 mL of detached cells is added to new culture flasks containing fresh Cell Culture medium (e.g. into 25 mL per T-150 flask), and mixed gently. The cells are incubated at 37° C. in 5% CO2. The medium is changed at 3 to 4 day interval (or as appropriate). The cells grow to confluency (approx. >75%–95%) within 7–8 days. All steps are done under sterile conditions. B. Membrane Preparation: The cells are washed twice gently with Hank's Balanced Salt solution (e.g. use 10 mL per T-150 flask). The excess solution is removed and the cells bathed for 15–30 min. in an enzyme-free Cell Dissociation Buffer (e.g. use 8 mL Hank's Based, Gibco Cat. # 13150-016 per T-150 flask) until cells are loosened. The contents are transferred to centrifuge tubes (50 mL) kept in an ice bath. All subsequent steps are done at 4° C. The tubes are centrifuged at 300× g for 15 min (1380 rpm on SORVAL, Model RT6000D, using the rotor for 50 mL tubes). The supernatant is discarded and the cells suspended in homogeneizing buffer(10 mM Tris-HCl containing 0.25 M sucrose and 1 mM EDTA, pH 7.4) ensuring that the volume of the buffer is about ten times the volume of the cell pellet. The cells are pooled into a centrifuge tube (50 mL) and homogenized with a Polytron at setting 6 for 10 sec. The homogenate is transferred into a Potter-Elvjehm homogeneizer and homogenized with 3 strokes. The homogenate is centrifuged at 1500×g for 60 min at 4° C. (3100 rpm using SORVAL, model RT6000D, using the rotor for 50 mL tubes). The pellet is discarded. The supernatant is centrifuged at 100,000×g for 60 min. at 4° C. (Beckman L8-80M ultracentrifuge; spin at 37,500 rpm with rotor type 70 Ti for 50 mL tubes; 38,000 rpm with type 80Ti for 15 mL tubes; or 35,800 rpm with rotor type 45Ti). The supernantant is discarded and the pellet suspended in 3 to 4 mL of Tris buffer (50 mM TRIS-HCl, pH 7.4). The protein content is estimated by the Bradford or Lowry method. The volume of the membrane suspension is adjusted with the membrane buffer (50 mM Tris-HCl containing 0.1% BSA and 0.1 mM PMSF) to give 3.0 mg/mL (or as appropriate) of protein. The membranes are aliquoted and stored at −70° C. C. Radioligand Binding Assay: In wells of a 96-well format microtiter plate, is added 90, 110 or 130 μL (to make up a final volume of 200 μL) of assay buffer containing 50 mM of Tris-HCl (pH 7.4), […], 1 mg % aprotinin, 1 mg % leupeptin, 2 mg % 1,10-phenanthroline, 10 mg % trypsin inhibitor, and 0.1 mM PMSF. The inhibitors are added on the day of the experiment. […]

Sequence of human V2 vasopressin receptor subtype (P30518 whole entry): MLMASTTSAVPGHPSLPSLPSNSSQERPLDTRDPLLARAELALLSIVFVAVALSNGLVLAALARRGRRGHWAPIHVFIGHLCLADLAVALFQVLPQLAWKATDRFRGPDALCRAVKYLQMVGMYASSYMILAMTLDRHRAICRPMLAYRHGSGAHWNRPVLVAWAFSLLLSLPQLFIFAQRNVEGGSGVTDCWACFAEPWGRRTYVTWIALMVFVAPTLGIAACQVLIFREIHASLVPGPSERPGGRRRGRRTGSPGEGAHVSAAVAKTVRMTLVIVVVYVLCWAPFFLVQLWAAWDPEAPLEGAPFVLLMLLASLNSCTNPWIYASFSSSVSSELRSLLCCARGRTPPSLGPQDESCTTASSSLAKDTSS

Point of comparison: `O=C(NCc1cccnc1)c1ccc2n1Cc1ccccc1N(C(=O)c1ccc(C3CCCCC3)cc1)C2` [Example 51, 10-(4-Cyclohexyl-benzoyl)-N-(3-pyridinylmethyl)-10,11-dihydro-5H-pyrrolo [2,1-c][1,4]benzodiazepine-3-carboxamide], inhibition at 0.1 µM 7%. Against it:
- CC(C)(C)c1ccc(C(=O)c2ccc3n2Cc2ccccc2N(C(=O)c2ccc(C4CCCCC4)cc2)C3)cc1 [Example 5, [4-(tert-Butyl)phenyl][10-(4-cyclohexyl-benzoyl)-10,11-dihydro-5H-pyrrolo[2,1-c][1,4]benzodiazepin-3-yl]methanone] — lower, 2%
- CN(C)CCCN1CCN(C(=O)c2ccc3n2Cc2ccccc2N(C(=O)c2ccc(C4CCCCC4)cc2)C3)CC1 [Example 45, [10-(4-Cyclohexyl-benzoyl)-10,11-dihydro-5H-pyrrolo[2,1-c][1,4]benzodiazepin-3-yl]{4-[3-(dimethylamino)propyl]-1-piperazinyl}methanone] — higher, 10%
- O=C(NNC(=O)c1ccc2n1Cc1ccccc1N(C(=O)c1ccc(C3CCCCC3)cc1)C2)Nc1ccccc1 [Example 15, 2-{[10-(4-Cyclohexyl-benzoyl)-10,11-dihydro-5H-pyrrolo[2,1-c][1,4]benzodiazepin-3-yl]carbonyl}-N-phenyl-1-hydrazinecarboxamide] — higher, 11%
- CN(C)CCN1CCN(C(=O)c2ccc3n2Cc2ccccc2N(C(=O)c2ccc(C4CCCCC4)cc2)C3)CC1 [Example 41, [10-(4-Cyclohexyl-benzoyl)-10,11-dihydro-5H-pyrrolo[2,1-c][1,4]benzodiazepin-3-yl]{4-[2-(dimethylamino)ethyl]-1-piperazinyl}methanone] — lower, 6%
- O=C(NCCc1ccccn1)c1ccc2n1Cc1ccccc1N(C(=O)c1ccc(C3CCCCC3)cc1)C2 [Example 49, 10-(4-Cyclohexyl-benzoyl)-N-[2-(2-pyridinyl)ethyl]-10,11-dihydro-5H-pyrrolo[2,1-c][1,4]benzodiazepine-3-carboxamide] — higher, 10%
- CN(C)CCCN(C)C(=O)c1ccc2n1Cc1ccccc1N(C(=O)c1ccc(C3CCCCC3)cc1)C2 [Example 35, 10-(4-Cyclohexyl-benzoyl)-N-[3-(dimethylamino)propyl]N-methyl-10,11-dihydro-5H-pyrrolo[2,1-c][1,4]benzodiazepine-3-carboxamide] — higher, 16%
- CN(CCc1ccccn1)C(=O)c1ccc2n1Cc1ccccc1N(C(=O)c1ccc(C3CCCCC3)cc1)C2 [Example 52, 10-(4-Cyclohexyl-benzoyl)-N-methyl-N-[2-(2-pyridinyl)-ethyl]-10,11-dihydro-5H-pyrrolo[2,1-c][1,4]benzodiazepine-3-carboxamide] — higher, 8%
- CN1CCC(N(C)C(=O)c2ccc3n2Cc2ccccc2N(C(=O)c2ccc(C4CCCCC4)cc2)C3)CC1 [Example 39, 10-(4-Cyclohexyl-benzoyl)-N-methyl-N-(1-methyl-4-piperidinyl)-10,11-dihydro-5H-pyrrolo[2,1-c][1,4]benzodiazepine-3-carboxamide] — higher, 13%
- CN1CCC(N(C)C(=O)c2ccc3n2Cc2ccccc2N(C(=O)c2ccc(C4CCCCC4)cc2)C3)C1 (stereo not shown) [Example 40, 10-(4-Cyclohexyl-benzoyl)-N-methyl-N-(1-methyl-3-pyrrolidinyl)-10,11-dihydro-5H-pyrrolo[2,1-c][1,4]benzodiazepine-3-carboxamide] — lower, -3%
- CN(CCc1ccncc1)C(=O)c1ccc2n1Cc1ccccc1N(C(=O)c1ccc(C3CCCCC3)cc1)C2 [Example 55, 10-(4-Cyclohexyl-benzoyl)-N-methyl-N-[2(4-pyridinyl)ethyl]-10,11-dihydro-5H-pyrrolo[2,1-c][1,4]benzodiazepine-3-carboxamide] — lower, 6%
- Cc1ccccc1N1CCN(C(=O)c2ccc3n2Cc2ccccc2N(C(=O)c2ccc(C4CCCCC4)cc2)C3)CC1 [Example 27, [10-(4-Cyclohexyl-benzoyl)-10,11-dihydro-5H-pyrrolo[2,1-c][1,4]benzodiazepin-3-yl][4-(2-methylphenyl)-1-piperazinyl]-methanone] — higher, 9%
- COC(=O)c1ccc2c(c1)N(C(=O)c1ccc(C3CCCCC3)cc1)Cc1ccc(C(=O)N3CCN(C)CC3)n1C2.Cl [Example 1, Methyl 10-(4-cyclohexylbenzoyl)-3-[(4-methyl-1-piperazinyl)carbonyl]-10,11-dihydro-5H-pyrrolo[2,1-c][1,4]benzodiazepine-8-carboxylate hydrochloride salt] — lower, 3%
- O=C(NCc1ccncc1)c1ccc2n1Cc1ccccc1N(C(=O)c1ccc(C3CCCCC3)cc1)C2 [Example 53, 10-(4-Cyclohexyl-benzoyl)-N-(4-pyridinylmethyl)-10,11-dihydro-5H-pyrrolo[2,1-c][1,4]benzodiazepine-3-carboxamide] — lower, 2%

Point of comparison: `Cc1cccc(C(=O)NNC(=O)c2ccc3n2Cc2ccccc2N(C(=O)c2ccc(C4CCCCC4)cc2)C3)c1` [Example 14, 10-(4-Cyclohexyl-benzoyl)-N′-(3-methyl-benzoyl)-10,11-dihydro-5H-pyrrolo[2,1-c][1,4]benzodiazepine-3-carbonyl-hydrazide], “V2 % inhibition at 100 nM” value 4%. Against it:
- O=C(C(=O)N1CCC(N2CCCCC2)CC1)c1ccc2n1Cc1ccccc1N(C(=O)c1ccc(C3CCCCC3)cc1)C2 [Example 31, 1-[1.4′]Bipiperidinyl-1′-yl-2-[10-(4-cyclohexyl-benzoyl)-10,11-dihydro-5H-pyrrolo[2,1-c][1,4]benzodiazepin-3-yl]-ethane-1,2-dione] — lower, 2%

same assay, conditions: [3H]arginine vasopressin, value in parentheses

Point of comparison: `CN(C)/C=N/C(=O)c1ccc2n1Cc1ccccc1N(C(=O)c1ccc(C3CCCCC3)cc1)C2` [Example 17], IC50 0.477 µM. Against it:
- CN1CCN(C(=O)c2ccc3n2Cc2ccccc2N(C(=O)c2ccc(C4CCCCC4)cc2)C3)CC1 [Example 24, [10-(4-Cyclohexyl-benzoyl)-10,11-dihydro-5H-pyrrolo[2,1-c][1,4]benzodiazepin-3-yl](4-methyl-1-piperazinyl)-methanone] — higher, > 1 µM
- O=C(c1ccc2n1Cc1ccccc1N(C(=O)c1ccc(C3CCCCC3)cc1)C2)N1CCC(N2CCCCC2)CC1 [Example 26, [1,4′]Bipiperidinyl-1′-yl-[10-(4-cyclohexyl-benzoyl)-10,11-dihydro-5H-pyrrolo[2,1-c][1,4]benzodiazepin-3-yl]-methanone] — higher, > 1 µM
- CN(C)NC(=O)c1ccc2n1Cc1ccccc1N(C(=O)c1ccc(C3CCCCC3)cc1)C2 [Example 19, 10-(4-Cyclohexyl-benzoyl)-N′-N′-dimethyl-10,11-dihydro-5H-pyrrolo[2,1-c][1,4]benzodiazepine-3-carbohydrazide] — higher, > 1 µM
- NC(=O)c1ccc2n1Cc1ccccc1N(C(=O)c1ccc(C3CCCCC3)cc1)C2 [Example 16, 10-(4-Cyclohexyl-benzoyl)-10,11-dihydro-5H-pyrrolo[2,1-c][1,4]benzodiazepin-3-carboxamide] — higher, > 1 µM
- NNC(=O)c1ccc2n1Cc1ccccc1N(C(=O)c1ccc(C3CCCCC3)cc1)C2 [Example 8, 10-(4-Cyclohexy-benzoyl)-10,11-dihydro-5H-pyrrolo[2,1-c][1,4]benzodiazepine-3-carboxylic acid hydrazide] — higher, > 1 µM
